Measured values reported in the NIST ThermoML archive (doi:10.1016/j.jct.2014.01.002).
Numbers after ± are expanded uncertainties.

Experiment: excess molar enthalpy (molar enthalpy of mixing); xn = mol fraction of the nth substance listed
Conditions: 298.15 K, 99 kPa, Liquid, Calvet calorimetry

C1CCCCC1 [cyclohexane] + CCCCCC
Conditions	excess molar enthalpy [kcal/mol]
x1 = 0.0524	0.00813 ± 0.000239
x1 = 0.1136	0.017 ± 0.000478
x1 = 0.1603	0.0232 ± 0.000478
x1 = 0.2014	0.0282 ± 0.000717
x1 = 0.2485	0.0335 ± 0.000717
x1 = 0.3022	0.0392 ± 0.000956
x1 = 0.3647	0.0442 ± 0.000956
x1 = 0.4379	0.049 ± 0.0012
x1 = 0.4819	0.0509 ± 0.0012
x1 = 0.5388	0.0526 ± 0.0012
x1 = 0.5621	0.0528 ± 0.0012
x1 = 0.6166	0.0526 ± 0.0012
x1 = 0.6576	0.0516 ± 0.0012
x1 = 0.7177	0.0483 ± 0.0012
x1 = 0.7702	0.0435 ± 0.000956
x1 = 0.8085	0.0392 ± 0.000956
x1 = 0.8623	0.0318 ± 0.000717
x1 = 0.9276	0.0191 ± 0.000478

CCCCCO [pentan-1-ol] + CCCCCC
Conditions	excess molar enthalpy [kcal/mol]
x1 = 0.0241	0.0686 ± 0.00143
x1 = 0.0501	0.0848 ± 0.00191
x1 = 0.0573	0.0887 ± 0.00191
x1 = 0.1085	0.103 ± 0.00215
x1 = 0.1504	0.112 ± 0.00239
x1 = 0.1912	0.121 ± 0.00263
x1 = 0.2341	0.127 ± 0.00287
x1 = 0.2905	0.129 ± 0.00287
x1 = 0.3433	0.13 ± 0.00287
x1 = 0.3934	0.128 ± 0.00287
x1 = 0.4452	0.125 ± 0.00263
x1 = 0.5771	0.0982 ± 0.00215
x1 = 0.5794	0.0985 ± 0.00215
x1 = 0.6531	0.0798 ± 0.00167
x1 = 0.6979	0.0672 ± 0.00143
x1 = 0.7463	0.0535 ± 0.0012
x1 = 0.803	0.0368 ± 0.000956
x1 = 0.9021	0.0151 ± 0.000478
